Assay [1] has as its system rat lacrimal secretion. The following applies: earlier finding, no details given; cited from earlier work.
Assay [2] deals with rat lacrimal secretion. The experiment in a line: Rat lacrimal fluid secretion in vivo (Schirmer test paper). The following applies: male Wistar rat; for lacrimal secretion promoting action: peptide 5 μmol/kg i.v. one minute after amastatin 2.5 μmol/kg i.v., six minutes after administration (FIGS. 1, 3); for lacrimal secretion promoting action compared with Ser-Leu-Ile-Gly-Arg-Leu-NH2 and Ile-Gly-Arg-Leu-NH2: six minutes after administration (FIGS. 2, 4). How it is done: An amount of lacrimal secretion which is an indication for determining an effect of promoting lacrimal secretion can be measured according to a known method such as by Iga et al. (Iga, Y. et al., Jpn. J. Pharmacol., 78, 373-80, 1998) using a rat. In particular, a rat is anesthetized with pentobarbital (50 mg/kg, intra-abdominal administration), and a paper with 2 mm width for testing the human lacrimal secretion function, the Schirmer test paper (Showa Yakuhin Kako Co., Ltd.) is inserted into a lower eyelid of the rat. After a fixed period of time has passed, the test paper is removed, and a length of the wetted portion of the test paper is measured using a caliper square. If a statistically significant increase of lacrimal secretion is observed when a test substance is administered, it can be said that the substance has the lacrimal secretion promoting action.
Male Wistar rat at 6 weeks of age was used in experiments. Each animal was housed for one week under the environment of room temperature of 23±2° C., a humidity of 50±5% and a 12 hours light/dark cycle (light: 07:00-19:00) and, thereafter, it was subjected to experiments. During the housing and experiment period, the animal was fed a solid chaw and water ad lib.
An amount of rat lacrimal fluid secretion was measured according to the method of Iga et al. (Iga, Y. et al., Jpn. J. Pharmacol., 78, 373-80, 1998). That is, the rat was anesthetized with pentobarbital (50 mg/kg, intraabdominal administration), and a paper with 2 mm width for testing human lacrimal secretion function, the Schirmer test paper (Showa Yakuhin Kako Co., Ltd.) was inserted into a lower eyelid of the rat. After the period of time fixed has passed, the test paper was removed, and a length of a wetted portion of the test paper was measured using a caliper square to define an indicator of lacrimal secretion. An amount of lacrimal fluid was measured at 1, 2, 4 and 6 minutes after administration of the peptides.
In addition, the results are shown in the mean (mm)±standard error, and the test of significance was performed according to a Tukey's multiple comparison test.
A physiological salt solution of amastatin (2.5 μmol/kg), which is an aminopeptidase inhibitor, was intravenously administrated to the rat, and after one minute, a physiological salt solution of various peptide derivatives (5 μmol/kg) was intravenously administrated. Measurements were initiated immediately after administration of the peptides.
As a control, an amount of lacrimal secretion was also measured in the case where the physiological salt solution without the peptide (solvent) was intravenously, administrated.

In assay [3] the test system is PAR-2. Particulars: as disclosed in JP 2001-181208A; cited from earlier work.
Where [4] appears, read: peptide 5 μmol/kg i.v. after amastatin 2.5 μmol/kg i.v.

The text below walks through data of US8383595B2, “Peptide derivative and composition for promoting tear secretion comprising the same” (Kinki University, priority 2008, dated 2013).

Where no end group is shown, it is not given here.

In the case of “Ile-Gly-Arg-Leu-NH2 (IGRL-NH2) [Ile-Gly-Arg-Leu-NH7]”, in assay [1], the “lacrimal secretion promoting action (previously demonstrated)” value is “previously demonstrated to have the lacrimal secretion promoting action”.
Regarding L-Arg-D-Leu-NH2 [(L)Arg-(D)Leu-NH2], the “lacrimal secretion promoting action” value in assay [2] is recorded as “did not entirely influence on lacrimal secretion”.
As to D-Arg-D-Leu-NH2 [(D)Arg-(D)Leu-NH2], the “lacrimal secretion promoting action” value in assay [2] was “did not entirely influence on lacrimal secretion”.
With D-Arg-L-Leu-NH2 [(D) Arg-(L)Leu-NH2], the “lacrimal secretion promoting action” value in assay [2] is reported as “did not entirely influence on lacrimal secretion”.
Regarding L-Arg-L-Leu-NH2 [(L)Arg-(L)Leu-NH2], the “lacrimal secretion promoting action compared with Ser-Leu-Ile-Gly-Arg-Leu-NH2 and Ile-Gly-Arg-Leu-NH2” value in assay [2] (setting [4]) is “lower than those of Ser-Leu-Ile-Gly-Arg-Leu-NH2 and Ile-Gly-Arg-Leu-NH2”. In assay [2], the “lacrimal secretion promoting action” value is “promote lacrimal secretion”.
Take cyclo-L-Arg-L-Leu-NH2 [cyclo-Arg-Leu]: the “lacrimal secretion promoting action” value in assay [2] was “did not entirely influence on lacrimal secretion”.
On to “Ser-Leu-Ile-Gly-Arg-Leu-NH2 (SLIGRL-NH2)”, for which the “lacrimal secretion promoting action (previously demonstrated)” value in assay [1] is recorded as “previously demonstrated to have the lacrimal secretion promoting action”. In assay [3], the “activation of PAR-2” value is “activates PAR-2”.
As for `CC(C)C[C@H](NC(=O)[C@H](CCCNC(=N)N)NC(=O)c1ccco1)C(N)=O` [2-furoyl-(L)Arg-(L)Leu-NH2, N-(2-furoyl)-L-Arg-L-Leu-NH2], the “duration of the lacrimal secretion promoting action compared with Ser-Leu-Ile-Gly-Arg-Leu-NH2 and Ile-Gly-Arg-Leu-NH2” value in assay [2] (peptide 5 μmol/kg i.v. after amastatin 2.5 μmol/kg i.v., measured at 1, 2, 4 and 6 minutes (FIG. 5)) is recorded as “maintained over a longer period of time”. For the same compound, the “lacrimal secretion promoting action compared with Ser-Leu-Ile-Gly-Arg-Leu-NH2 and Ile-Gly-Arg-Leu-NH2” value in assay [2] (setting [4]) was “almost the same as those of Ser-Leu-Ile-Gly-Arg-Leu-NH2 and Ile-Gly-Arg-Leu-NH2”. Further, in assay [2], the “lacrimal secretion promoting action” value is reported as “potent lacrimal secretion promoting action”.
